According to US4657891A, “Diuretic peptide, and production and use thereof” (Suntory Limited, priority 1984, dated 1987):
Bridge positions count the residues as written; N and C are the ends. Ends that are not written are not given here.

Key:
Male rats [1] = experiment: Diuretic and natriuretic test in anesthetized rats, urine collected before and 5 minutes after jugular vein injection (Table 2); assay type: in vivo, rat; conditions: furosemide 1.21 μmole (group IV)
Protocol: To keep the respiratory tract open, a tracheal cannula (PE-240 Clay-Adams) was inserted into the trachea. An arterial cannula (PE-50) was inserted into a femoral artery for measurement of the blood pressure, and a venous cannula was inserted into a femoral vein for the administration of Ringer's solution.
The collection of urine was carried out for 30 minutes before administration of the test compound, and every five minutes after the administration.
The control group (group I) was administered 50 μl of physiological saline containing only bacitracin.

Male rats [2] = experiment: Another test: relative amounts of urine, Na+, K+, Cl- for 30 minutes before and after administration (Table 3); assay type: in vivo, rat; conditions: Furosemide 0.3 μmol
Protocol: Male rats weighing 300 to 400 grams were anesthetized by intraperitoneal administration of pentobarbital at a dosage of 60 mg/kg, and used for tests of the β-rANP according to the method described in Life Sciences, Vol. 28, pp 89-94.
To keep the respiratory tract open, a tracheal cannula (PE-240 Clay-Adams) was inserted into the trachea. An arterial cannula (PE-50) was inserted into a femoral artery for measurement of the blood pressure, and a venous cannula was inserted into a femoral vein for the administration of Ringer's solution. 1.2 ml of Ringer's solution was infused at a flow rate of 1.2 ml/hour.
A bladder cannula made of silastic tube with a inner diameter of 0.02 inches and an outer diameter of 0.037 inches was inserted into the bladder, and via the cannula, a urine sample was collected into a test tube. The collection of urine was carried out for 30 minutes before administration of the test compound, and every five minutes after the administration.
A predetermined amount of the test compound β-rANP was dissolved in 50 μl of sterilized physiological saline with 5 μg of bacitracin, and the solution was injected into the jugular vein.

[3] = Repeated administration: antibody production, anaphylaxis shock, toxicity; assay type: in vivo
Solubility in solvents = assay type: physicochemical
Description: (6) Solubility in solvents: soluble in water, partially in methanol, and acetic acid; insoluble in ethyl acetate, butyl acetate, ethyl ether, hexane, petroleum ether, benzene, and chloroform.

Row | Compound | Urine volume A (Male rats [1]; A: sample collected 5 minutes after administration) [µL/min] | Urine volume B (Male rats [1]; B: sample collected 30 minutes before administration) [µL/min] | Urine volume, percentage after relating to before (Male rats [2]) [%] | toxicity ([3]; in vivo) | anaphylaxis shock ([3]; repeated administration) | production of antibodies ([3]; repeated administration) | Solubility in solvents (Solubility in solvents; ethyl acetate, butyl acetate, ethyl ether, hexane, petroleum ether, benzene, and chloroform) | Solubility in solvents (Solubility in solvents; methanol, and acetic acid) | Solubility in solvents (Solubility in solvents; water)
1 | NS(=O)(=O)c1cc(C(=O)O)c(NCc2ccco2)cc1Cl [Furosemide, furosemide] | 167 ± 28 | 8.6 ± 1.9 | 497 ± 165 | – | – | – | – | – | –
2 | PSDRSALLKSKLRALLAGPRSLRRSSCFGGRIDRIGAQSGLGCNSFRY (disulfide 27-43) [β-rANP, β-rat atrial natriuretic polypeptide] | – | – | – | little toxicity | does not cause | does not stimulate | insoluble | partially | soluble
